The values that follow come from US20080200505A1, “Piperidines for the Treatment of Chemokine Mediated Diseases” (ASTRAZENECA AB, priority 2005, published 2008).

T1 sequence (P35367 whole entry): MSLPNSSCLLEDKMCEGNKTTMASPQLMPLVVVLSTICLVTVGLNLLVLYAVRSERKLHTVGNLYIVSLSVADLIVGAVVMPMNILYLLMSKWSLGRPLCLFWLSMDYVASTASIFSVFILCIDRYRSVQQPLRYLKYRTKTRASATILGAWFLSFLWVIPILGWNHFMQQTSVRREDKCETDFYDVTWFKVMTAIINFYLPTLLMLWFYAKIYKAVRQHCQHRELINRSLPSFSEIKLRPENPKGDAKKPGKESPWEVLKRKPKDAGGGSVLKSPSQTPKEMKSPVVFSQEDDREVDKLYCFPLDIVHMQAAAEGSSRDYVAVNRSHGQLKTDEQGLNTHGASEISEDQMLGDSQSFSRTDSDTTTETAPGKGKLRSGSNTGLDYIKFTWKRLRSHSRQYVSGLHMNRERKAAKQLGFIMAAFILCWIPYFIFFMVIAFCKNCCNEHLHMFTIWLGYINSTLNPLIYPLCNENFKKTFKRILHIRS

The test has as its target T1, human H1 receptor (Homo sapiens, UniProt P35367).
T1 construct: purchased Euroscreen SA, Brussels, Belgium ES-390-M; host or cells: CHO-K1
Nature of the test: Histamine H1 receptor binding, competition displacement of [3H]-pyrilamine. The following applies: displacement of 1 nM [3H]-pyrilamine; membranes from recombinant CHO-K1 cells expressing the human H1 receptor; 1 hour at room temperature; read-out: H1 pKi (converted). As for the experimental part:
Histamine H1 receptor binding activity of compounds of the invention was assessed by competition displacement of 1 nM [3H]-pyrilamine (Amersham, Bucks, Product code TRK 608, specific activity 30 Ci/mmol) to 2 μg membranes prepared from recombinant CHO-K1 cells expressing the human H1 receptor (Euroscreen SA, Brussels, Belgium, product code ES-390-M) in assay buffer (50 mM Tris pH 7.4 containing 2 mM MgCl2, 250 mM sucrose and 100 mM NaCl) for 1 hour at room temperature.
The following compounds of the invention gave inhibition of [3H] pyrilimine binding: […]
`O=C(O)[C@H]1C2CCC(C2)[C@H]1N1CCC(CN2CCC(Oc3ccc(Cl)c(Cl)c3)CC2)CC1` (mixture of isomers) [Example 3A, (2S,3R) and (2R,3S)-3-(4-{[4-(3,4-dichlorophenoxy)piperidin-1-yl]methyl}piperidin-1-yl)bicyclo[2.2.1]heptane-2-carboxylic acid]: the Ki is 126 nM. For `O=C(O)[C@@H]1CCCC[C@H]1N1CCC(CN2CCC(Oc3ccc(Cl)c(Cl)c3)CC2)CC1` (racemic) [Example 1A, (1R,2R) and (1S,2S)-2-(4-{[4-(3,4-dichlorophenoxy)piperidin-1-yl]methyl}piperidin-1-yl)cyclohexanecarboxylic acid] the value was 200 nM; for `O=C(O)C1CCCC1N1CCC(CN2CCC(Oc3ccc(Cl)c(Cl)c3)CC2)CC1` [Example 4A, (1S,2R) and (1R,2S)-2-(4-{[4-(3,4-dichlorophenoxy)piperidin-1-yl]methyl}piperidin-1-yl)cyclopentanecarboxylate], 316 nM.
